Key:
[1] = tested on: HER2/ErbB2 amplified cell line N87; assay: In vivo tumor growth inhibition, xenograft; parameters: species or system Bab/c nude mice; conditions: Mus musculus, po, 456 h, 25 mg/kg intragastric once daily, day 19, read-out: TGI (%)
Outline: (§1)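 Female Bab/c nude mice (6–8 weeks) carried subcutaneous H1975, PC-9 or NCI-N87 xenografts and were dosed from 100–200 mm^3 tumors. Dosing was 25 mg/kg intragastrically once daily in a PEG400/Tween-80/propylene glycol suspension for up to 30 days. TGI was derived from caliper volumes (½ab^2) versus vehicle.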

[2] = tested on: PC-9 tumor cells; assay: In vivo tumor growth inhibition, xenograft; parameters: species or system Bab/c nude mice; conditions: Mus musculus, po, 456 h; 25 mg/kg intragastric once daily, day 19; read-out: TGI (%) PC-9
Outline: as §1

[3] = tested on: H1975 tumor cells; assay: In vivo tumor growth inhibition, xenograft; parameters: species or system Bab/c nude mice; conditions: Mus musculus, NCI-H1975, po, 456 h; 25 mg/kg intragastric once daily, day 19; read-out: TGI (%) H1975
Outline: as §1

[4] = tested on: H1993 (Met amp); assay: Growth inhibition GI50 in vitro (CCK8/MTT, 72 h); format: cell-based; conditions: Homo sapiens, NCI-H1993, H1993, EGFR wt
Method: (§2) Human gastric cancer cell line MKN-45 (ATCC) and NSCLC cell line NCI-H1993 (ATCC) were cultured with 1×RPMI1640 complete medium which was supplement with 10% FBS, respectively.
(§3) The suspension cells were collected by centrifugation. The supernatant was discard and the cell pellet was resuspended and counted. Different cell concentrations (5˜10×10^4 cells/mL) were prepared according to the growth cycle of each cell line and then seeded on a 96-well plate (Corning), 100 μL/well. The cells were incubated over night at 37° C., 5% CO2. The compounds were added to the cells on the second day with 2 wells in parallel. The final concentration of organic solvent shall not exceed 1%. The cells were continually incubated for 72 h, and then subjected to MTT assay.
(§4) The present compounds and the reference compounds were dissolved with DMSO (Sigma), respectively. […] The storage concentration of compounds was 10 mM and kept at −20° C. They were diluted by 2 times or 10 times with serial dilution before using.
(§5) Dojindo CCK8 reagent kit was used as MTT assay. […] FC meter was used as microplate reader.
(§6) Adherent cell culture medium was discard and immediately replaced with fresh prepared medium which contains 10% CCK8 reagent (100 μL/well). For the suspension cells, CCK8 was directly added to 10% of the final concentration. The cells were continually incubated for 1˜4 h. When the color of control wells turned to dark yellow, the absorption value was measured at OD450 nm. The cell growth rate was calculated according to the following formula: cell growth rate (%)=100*(T−T0)/(C−T0), T=optical density of drug treatment cell well—optical density of blank control well; T0=optical density of cell well before drug treatment—optical density of blank control well; C=optical density of cell well of solvent control group—optical density of blank control well. […] The experiment was independently repeated 1˜3 times, and subject to biological statistical analysis.
(§7) Growth inhibition assay was conducted in the cell lines shown Table 14 with the different oncogene mutations. Each compound started at 1000 nM as an initial concentration and was diluted by 2 times with serial dilution to 0.03 nM.

[5] = tested on: MKN-45 (Met amp); assay: Growth inhibition GI50 in vitro (CCK8/MTT, 72 h); format: cell-based; conditions: Homo sapiens, MKN-45, EGFR wt
Method: as §2, §3, §4, §5, §6, §7

[6] = tested on: SH-SY5Y (ALK F1174L); assay: Growth inhibition GI50 in vitro (CCK8/MTT, 72 h); format: cell-based; conditions: Homo sapiens, EGFR wt
Method: Neuroblastoma cell line SH-SY5Y (ALK F1174L positive) (Shanghai Cell Bank of Chinese Academy of Sciences) was cultured with MEM complete medium (supplement with 10% FBS, 1% NEAA, 1% double-antibiotics and 1 mM of sodium pyruvate).
as §3, §4, §5, §6, §7

[7] = tested on: SNU-16 (FGFR2 amp); assay: Growth inhibition GI50 in vitro (CCK8/MTT, 72 h); format: cell-based; conditions: Homo sapiens, SNU-16, EGFR wt
Method: (§8) Human NSCLC cell line NCI-H1581(ATCC) contains FGFR1 gene amplification and high expression. Human gastric cancer cell line SNU-16(ATCC) contains FGFR2 gene amplification and high expression. They were cultured with 1×RPMI1640 complete medium (10% FBS), respectively.
as §3, §4, §5, §6, §7

[8] = tested on: H1581 (FGFR1 amp); assay: Growth inhibition GI50 in vitro (CCK8/MTT, 72 h); format: cell-based; conditions: Homo sapiens, NCI-H1581, H1581, EGFR wt
Method: as §8, §3, §4, §5, §6, §7

[9] = tested on: H2228 (EML4-ALK); assay: Growth inhibition GI50 in vitro (CCK8/MTT, 72 h); format: cell-based; conditions: Homo sapiens, NCI-H2228, H2228, EGFR wt
[10] = tested on: Karpas-299 (NPM-ALK); assay: Growth inhibition GI50 in vitro (CCK8/MTT, 72 h); format: cell-based; conditions: Homo sapiens, Karpas-299, EGFR wt
[11] = tested on: MV4-11 (FLT3-ITD); assay: Growth inhibition GI50 in vitro (CCK8/MTT, 72 h); format: cell-based, human
Method: FLT3 is a kind of PTK and about 20-30% of patients with acute myelocytic leukemia (AML) in clinic express FLT3-ITD mutation protein. FLT3-ITD positive cell line MV4-11 was cultured with 1×RPMI1640 complete medium (supplement with 10% FBS).
as §3, §4, §5, §6, §7

Compound: C=CC(=O)Nc1cc(Nc2nccc(-n3ccc4c(OC)cccc43)n2)c(OC)cc1N(C)CCN(C)C [Compound 99, N-(5-(4-(4-methoxyl-1H-indol-1-yl)-pyrimidin-2-ylamino)-2-(2-(dimethylamino-ethyl)-methyl-amino)-4-methoxyl-phenyl)-acrylamide]
- inhibition in vivo at 25 mg/kg [1]: 95.4%
- inhibition in vivo at 25 mg/kg [2]: 95.8%
- inhibition in vivo at 25 mg/kg [3]: 94.6%

Compound: C=CC(=O)Nc1cc(Nc2cc(-c3cn(C(C)C)c4ccc(F)cc34)ncn2)c(OC)cc1N(C)CCN(C)C [Compound 191, N-(5-(6-(5-fluoro-1-isopropyl-1H-indol-3-yl)-pyrimidin-4-ylamino)-4-methoxyl-2-((2-dimethylamino-ethyl)-methyl-amino)-phenyl)-acrylamide]
- inhibition in vivo at 25 mg/kg [1]: 96.6%
- inhibition in vivo at 25 mg/kg [2]: 98.8%
- inhibition in vivo at 25 mg/kg [3]: 99.3%

Compound: C=CC(=O)Nc1cc(Nc2cc(-c3cn(C(C)C)c4ccccc34)ncn2)c(OC)cc1N(C)CCN(C)C [Compound 183]
- GI50 [4]: > 1000 nM
- GI50 [5]: 500 nM
- GI50 [6]: > 1000 nM
- GI50 [7]: > 1000 nM
- GI50 [8]: > 1000 nM
- GI50 [9]: > 500 nM
- GI50 [10]: > 1000 nM
- inhibition in vivo at 25 mg/kg [1]: 97.7%
- inhibition in vivo at 25 mg/kg [2]: 98.8%
- inhibition in vivo at 25 mg/kg [3]: 97.4%
- inhibition effects ([11]; FLT3-ITD+ MV4-11 cells): moderate inhibition effects
- GI50 ([11]; Homo sapiens, MV4-11, FLT3-ITD): > 1000 nM

Compound: C=CC(=O)Nc1cc(Nc2nccc(-n3ccc4ccc(F)cc43)n2)c(OC)cc1N(C)CCN(C)C [Compound 63, N-(5-(4-(6-fluoro-1H-indol-1-yl)-pyrimidin-2-ylamino)-2-((2-(dimethylamino)ethyl)-methyl-amino)-4-methoxyl-phenyl)-acrylamide]
- inhibition in vivo at 25 mg/kg [1]: 94.7%
- inhibition in vivo at 25 mg/kg [2]: 98.3%
- inhibition in vivo at 25 mg/kg [3]: 98.3%

Compound: C=CC(=O)Nc1cc(Nc2cc(Nc3cc(F)c(OC)c(Cl)c3)ncn2)c(OC)cc1N(C)CCN(C)C [Compound 236, N-(5-(6-(3-chloro-5-fluoro-4-methoxyphenylamino)-pyrimidin-4-yl-amino)-2-((2-dimethylamino-ethyl)-methyl-amino)-4-methoxyl-phenyl)-acrylamide]
- inhibition in vivo at 25 mg/kg [1]: 97.5%

Compound: C=CC(=O)Nc1cc(Nc2ncnc(Nc3cccc(Br)c3)n2)c(OC)cc1N(C)CCN(C)C [Compound 115, N-(5-(4-(3-bromo-phenylamino)-[1,3,5]triazin-2-ylamino)-2-((2-dimethylamino-ethyl)-methyl-amino)-4-methoxyl-phenyl)-acrylamide]
- inhibition in vivo at 25 mg/kg [1]: 97.8%
- inhibition in vivo at 25 mg/kg [2]: 97.1%
- inhibition in vivo at 25 mg/kg [3]: 59.1%
